Like-named read-outs stand apart in the source and are kept apart here.
Key:
[1] = system: lymphocytes from human milk; assay: Test on promotion of secretory IgA production; format: cell-based; details: 3 μg added to 3 ml Petri dish; after 7 days
Method: 5 ml of aseptically collected human milk was diluted twice with a 10 mM phosphate-buffered saline (PBS, pH 7.2) containing 150 mM NaCl and then layered in a test tube containing 5 ml of a separation solution (mixed solution of 33.4% Conray 400 (manufactured by Daiichi Pharmaceutical Co., Ltd.) and 9% Ficoll (manufactured by Pharmacia) at a ratio of 5:12). After centrifugation at 400×G for 30 minutes, the intermediate layer in which lymphocytes were gathered was collected with a Pasteur pipette. The lymphocytes were dispersed and washed in 10 ml of PBS and then centrifuged at 150×G for 10 minutes. This washing procedure was repeated three times. Then, 12 ml of an RPMI-1640 medium containing insulin (10 μg/ml) and transferrin (5 μg/ml) was added thereto, and the mixture was dispensed in an amount of 3 ml/Petri dish into 3 Petri dishes (A; […]

[2] = system: cholera toxin; details: in vivo
[3] = system: phototoxic pigmentation caused by treatment with 8MOP; format: in vivo, female ICR mice; details: for depigmentation / pigmentation grade (Table 12: +3 whitened to −3 evidently blackened): 5% sample, 50 μl once daily
Source text: An anti-pigmentation effect and the degree of pigmentation (shown in Table 12) produced as a side effect were rated by four-grade evaluation (+: depigmentation effect, −: side effect). […] Moreover, no agent was applied to a control group. […] [table]

[4] = system: sialomucin content in the saliva; assay: Effect of promoting sialomucin secretion: sialomucin content in rat saliva; format: in vivo, SD rats; details: 7th day of experimental diet containing 1% of the substance
Method: Seven-week-old male SD rats (manufactured by Charles River Laboratories, Japan, Inc) were raised under conditions involving humidity of 60%, room temperature of 24° C., and light-dark (12 hour/12 hour) control. All the rats were preliminarily raised for 1 week with a standard diet and then divided into 3 groups each containing 12 individuals. These groups were allowed to freely take their respective experimental diets and raised for 1 week. Rat saliva was collected on the 7th day after the administration of experimental diets. A sialomucin content in the saliva was measured by high-performance liquid chromatography. […] In this context, a sialomucin content in the saliva was measured by the following method: 0.2 ml of a Nembutal solution was intramuscularly injected to rats fasted for 2 hours or longer. After anesthesia, a solution of pilocarpine hydrochloride serving as a saliva secretion promoter was intramuscularly injected thereto. […] A sialomucin content in the sialomucin fraction was quantified with a Sialic Acid Fluorescence Labeling Kit (Takara Bio Inc.). […] Free N-acetyl sialic acid or O-acetylated sialic acid was reacted at 55° C. for 2.5 hours by the addition of a DMB reagent as a fluorescence labeling agent and then quantified by high-performance liquid chromatography.

[5] = system: enteropathogenic E. coli O-157; assay: Test II on prevention of enteropathogenic E. coli O-157 infection; format: in vivo; details: mice, 8th day after administration of E. coli
Method: Sphingomyelin was tested for its effect of preventing enteropathogenic E. coli O-157 infection according to the method described in “Test Example 2” of Japanese Patent Laid-Open No. 2001-2704.
Test II on prevention of enteropathogenic E. coli O-157 infection
The survival rate of mice on the 8th day after the administration of E. coli was measured in the same way as in Test Example 10 except that the intake of sphingomyelin was changed to 0.1 to 10 mg/day.

[6] = system: enteropathogenic E. coli; details: SD rats
[7] = system: Chinese hamster lung fibroblast cell line V79; format: cell-based
Method: The antioxidative activity of sphingomyelin was measured according to the method of Nakayama et al. (Mutation Research, vol. 281, pp. 77-80, 1992). […] Then, the antioxidative activity of sphingomyelin was determined using reduction in colony forming activity attributed to hydrogen peroxide as an index for toxicity and assessed based on the extent to which the colony forming activity recovered from such reduction by adding sphingomyelin to the cultured cells for test. The cultured cells for test were inoculated onto a plate and precultured (cell adhesion) for 2 hours. […] The cultured cells for test were incubated for 4 hours so that the cells were allowed to take up sphingomyelin, prior to hydrogen peroxide. Next, the cells were reacted for 30 minutes by the addition of hydrogen peroxide and damaged. After reaction, the cells were cultured for 5 days in a medium containing serum. In this context, the concentration of hydrogen peroxide was set to 60 μM at which colony forming activity was decreased to a few % to approximately 40%. […] In this context, higher cell viability indicates the higher antioxidative activity of the added sphingomyelin.

[8] = system: erythrocyte membrane ghost; assay: Antioxidative activity: erythrocyte membrane ghost oxidation (TBA reaction); format: biochemical, rabbit
Method: The antioxidative activity of sphingomyelin was measured according to the method of Osawa et al. (J. Agric. Food Chem., vol. 35, pp. 809-812, 1987). Specifically, preserved rabbit blood was mixed with an equal amount of an isotonic solution (10 mM phosphate buffer/152 mM sodium chloride, pH 7.4), followed by centrifugation at 1,500×g (3,500 rpm) at 4° C. for 20 minutes. Blood corpuscles washed by repeating this procedure three times were mixed with an equal amount of a hypotonic solution (10 mM phosphate buffer, pH 7.4), followed by centrifugation at 20,000×g (11,000 rpm) at 4° C. for 40 minutes. Then, loose pellets (erythrocyte membrane ghost) obtained by repeating this procedure four times were used to examine antioxidative activity. […] An oxidation reaction was performed by the addition of an oxidizing agent. Subsequently, a TBA reaction was performed. Then, absorbance at 532 nm was measured to quantify an oxidation product.

Substance: sphingomyelin
- IgA content in the culture solution [1]: 3.11 µg/mL
- Inhibition rate [2]: 38.9 ± 3.8%
- depigmentation / pigmentation grade (Table 12: +3 whitened to −3 evidently blackened) ([3]; application period 1 week): 0.4
- depigmentation / pigmentation grade (Table 12: +3 whitened to −3 evidently blackened) ([3]; application period 2 weeks): 0.8
- depigmentation / pigmentation grade (Table 12: +3 whitened to −3 evidently blackened) ([3]; application period 3 weeks): 1.2
- depigmentation / pigmentation grade (Table 12: +3 whitened to −3 evidently blackened) ([3]; application period 4 weeks): 1.1
- depigmentation / pigmentation grade (Table 12: +3 whitened to −3 evidently blackened) ([3]; application period 5 weeks): 0.9
- depigmentation / pigmentation grade (Table 12: +3 whitened to −3 evidently blackened) ([3]; application period 6 weeks): 0.3
- depigmentation / pigmentation grade (Table 12: +3 whitened to −3 evidently blackened) ([3]; application period 7 weeks): 0
- depigmentation / pigmentation grade (Table 12: +3 whitened to −3 evidently blackened) ([3]; application period 8 weeks): 0
- side effect (pigmentation) on application ([3]; mouse, in vivo): no side effect
- Sialomucin content [4]: 25.2 ± 2.9 µg/µL
- Survival rate ([5]; intake 0.1 mg/day, control 35): 35%
- Survival rate ([5]; intake 1.0 mg/day): 65%
- Survival rate ([5]; intake 5.0 mg/day): 70%
- Survival rate ([5]; intake 10.0 mg/day): 70%
- Incidence of diarrhea ([6]; intake 0.1 mg/day in feed, control 100): 100%
- Incidence of diarrhea ([6]; intake 1.0 mg/day in feed): 40%
- Incidence of diarrhea ([6]; intake 5.0 mg/day in feed): 30%
- Incidence of diarrhea ([6]; intake 10.0 mg/day in feed): 10%
- own toxicity (colony forming activity) [7]: no reduction in colony forming activity
- absorbance at 532 nm (oxidation product) with respect to absence of added sphingomyelin defined as 100% ([8]; sample concentration 0.01 mM, lower = higher antioxidative activity): 98%
- absorbance at 532 nm (oxidation product) with respect to absence of added sphingomyelin defined as 100% ([8]; sample concentration 0.1 mM): 95%
- absorbance at 532 nm (oxidation product) with respect to absence of added sphingomyelin defined as 100% ([8]; sample concentration 1 mM): 80%
- absorbance at 532 nm (oxidation product) with respect to absence of added sphingomyelin defined as 100% ([8]; sample concentration 10 mM): 61%

From patent US8486916B2, “Medicine, food and drink or feed containing sphingomyelin” (Megmilk Snow Brand Co., Ltd., priority 2005, dated 2013)
